pIC50: −log10 of the molar value.
Tests used:
human CYP4F2 = target: T1, human CYP4F2 (Homo sapiens, UniProt P78329); assay: CYP4F2 inhibition test (Test Example 1); type: biochemical; settings: Escherichia coli membrane fraction expressing human CYP4F2, 2.5 μM luciferine derivative, room temperature 60 minutes, luminescence
T1 construct: host or cells: Escherichia coli (membrane fraction)
T1 sequence (P78329 5-520): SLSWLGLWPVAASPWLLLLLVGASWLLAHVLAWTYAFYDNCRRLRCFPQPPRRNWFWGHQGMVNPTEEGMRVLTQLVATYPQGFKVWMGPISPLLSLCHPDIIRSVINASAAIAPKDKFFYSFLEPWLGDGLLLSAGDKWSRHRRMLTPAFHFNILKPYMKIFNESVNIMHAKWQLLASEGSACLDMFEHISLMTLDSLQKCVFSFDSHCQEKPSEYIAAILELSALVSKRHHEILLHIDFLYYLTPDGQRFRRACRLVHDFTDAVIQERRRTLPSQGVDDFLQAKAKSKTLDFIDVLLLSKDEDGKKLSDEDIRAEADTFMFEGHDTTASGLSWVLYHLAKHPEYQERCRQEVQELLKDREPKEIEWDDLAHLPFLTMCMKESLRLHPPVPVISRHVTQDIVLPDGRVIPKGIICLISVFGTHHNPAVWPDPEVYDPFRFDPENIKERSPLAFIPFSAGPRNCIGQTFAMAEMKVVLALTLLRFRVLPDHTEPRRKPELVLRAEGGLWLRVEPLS
Experimental: (§1) (1) Inhibition Test for Each Compound of the Present Invention Against 20-HETE Producing Enzymes (CYP4F2 and CYP4A11)
(§2) In the CYP4F2 inhibition test, the reaction solution containing each compound [final concentration of 50 mM, KPO4 (pH 7.4), 2.5 μM, luciferine derivative and 1 mM NADPH] was added to an Escherichia coli membrane fraction (100 μg/mL, protein) in which human CYP4F2 had been expressed. In the CYP4A11 inhibition test, the reaction solution containing each compound [final concentration of 100 mM, Tris-HCl (pH 7.5), 60 μM, luciferine derivative, 1.3 mM NADP^+, 3.3 mM Glucose 6-Phosphate, 3.3 mM MgCl2 and 0.4 U/mL Glucose 6-Phosphate dehydrogenase] was added to an Escherichia coli membrane fraction (100 μg/mL, protein) in which human CYP4A11 had been expressed. Following this, the membrane fraction was left to stand at room temperature for 60 minutes to perform an enzymatic reaction. After the reaction, a luciferine detection reagent was added, and the luminescence value was measured using a plate reader.
(§3) A: Luminescence value with addition of compound
(§4) B: Luminescence value without addition of compound and enzyme
(§5) C: Luminescence value without addition of compound

human CYP4A11 = target: T2, human CYP4A11 (Homo sapiens, UniProt Q02928); assay: CYP4A11 inhibition test (Test Example 1); type: biochemical; settings: Escherichia coli membrane fraction expressing human CYP4A11, 60 μM luciferine derivative, room temperature 60 minutes, luminescence
T2 construct: host or cells: Escherichia coli (membrane fraction)
T2 sequence (Q02928 5-519): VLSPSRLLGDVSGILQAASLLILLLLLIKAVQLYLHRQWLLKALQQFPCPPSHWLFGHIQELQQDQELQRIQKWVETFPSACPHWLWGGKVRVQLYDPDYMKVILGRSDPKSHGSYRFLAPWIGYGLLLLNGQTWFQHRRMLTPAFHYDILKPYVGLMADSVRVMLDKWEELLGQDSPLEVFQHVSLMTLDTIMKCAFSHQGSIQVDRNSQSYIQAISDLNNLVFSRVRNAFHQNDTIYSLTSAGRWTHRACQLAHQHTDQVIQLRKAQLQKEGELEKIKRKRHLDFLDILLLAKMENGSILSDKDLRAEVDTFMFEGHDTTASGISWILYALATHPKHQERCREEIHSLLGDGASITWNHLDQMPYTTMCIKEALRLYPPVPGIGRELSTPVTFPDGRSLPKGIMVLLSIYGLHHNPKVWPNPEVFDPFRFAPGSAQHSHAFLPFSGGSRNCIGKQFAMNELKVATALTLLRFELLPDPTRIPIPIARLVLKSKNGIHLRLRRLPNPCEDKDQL
Experimental: as §1, §2, §3, §4, §5

Row | pIC50 (human CYP4F2) | pIC50 (human CYP4A11) | Structure (SMILES)
1 | 6.24 | 6.62 | CS(=N)(=O)c1cccc(COc2ccc(-c3ccn[nH]3)nc2)c1 (racemic) [Example 50-1, Imino-methyl-oxo-(3-{[6-(1H-pyrazol-5-yl)pyridin-3-yl]oxymethyl}phenyl)-λ^6-sulfane]
2 | 6.62 | 7.28 | COC(=O)N1CCC(CCOc2ccc(-c3ccn[nH]3)nc2)C(C)C1 (single isomer, unassigned) [Example 1-16-1]
3 | 6.59 | 7.24 | COC(=O)N1CCC(CCOc2ccc(-c3ccn[nH]3)nc2)C(C)C1 (single isomer, unassigned) [Example 1-16-2]
4 | 5.92 | 6.60 | CS(=N)(=O)c1cccc(COc2ccc(-c3ccn[nH]3)nc2)c1 (single isomer, unassigned) [Example 50-2, Imino-methyl-oxo-(3-{[6-(1H-pyrazol-5-yl)pyridin-3-yl]oxymethyl}phenyl)-λ^6-sulfane]
5 | 6.42 | 6.47 | CS(=N)(=O)c1cccc(COc2ccc(-c3ccn[nH]3)nc2)c1 (single isomer, unassigned) [Example 50-3, Imino-methyl-oxo-(3-{[6-(1H-pyrazol-5-yl)pyridin-3-yl]oxymethyl}phenyl)-λ^6-sulfane]
6 | 6.85 | 7.28 | CC(C)c1cccc(COc2ccc(-c3ccn[nH]3)nc2)c1 [53-3]
7 | 7.49 | 6.34 | CCCCCc1cccc(COc2ccc(-c3ccn[nH]3)nc2)c1 [53-4]
8 | 6.89 | 6.18 | c1cc(COc2ccc(-c3ccn[nH]3)nc2)cc(C2CCCCC2)c1 [53-5]
9 | 7.92 | 6.18 | COc1ccc(COc2ccc(-c3ccn[nH]3)nc2)cc1F [54-3]
10 | 7.62 | 6.46 | Fc1ccc(COc2ccc(-c3ccn[nH]3)nc2)cc1F [54-4]
11 | 7.89 | 6.19 | Fc1cc(COc2ccc(-c3ccn[nH]3)nc2)ccc1Cl [54-5]
12 | 7.54 | 7.06 | Fc1ccc(COc2ccc(-c3ccn[nH]3)nc2)cc1Cl [54-6]
13 | 7.72 | 6.77 | Clc1ccc(COc2ccc(-c3ccn[nH]3)nc2)cc1Cl [54-7]
14 | 7.68 | 5.96 | Fc1ccc(COc2ccc(-c3ccn[nH]3)nc2)cc1C(F)(F)F [54-8]
15 | 6.89 | 6.17 | Fc1cc(F)cc(COc2ccc(-c3ccn[nH]3)nc2)c1 [54-9]
16 | 6.54 | 7.17 | Clc1cc(Cl)cc(COc2ccc(-c3ccn[nH]3)nc2)c1 [54-10]
17 | 6.49 | 6.16 | COc1cc(COc2ccc(-c3ccn[nH]3)nc2)cc(OC)c1 [54-11]
18 | 6.19 | 5.44 | CCOc1cc(COc2ccc(-c3ccn[nH]3)nc2)cc(OCC)c1 [54-12]
19 | 6.77 | 6.32 | Fc1cc(COc2ccc(-c3ccn[nH]3)nc2)cc(F)c1F [54-13]
20 | 7.48 | 5.92 | CC(C)c1ccc(COc2ccc(-c3ccn[nH]3)nc2)cc1 [54-14]
21 | 6.36 | 5.20 | CC(C)(C)c1ccc(COc2ccc(-c3ccn[nH]3)nc2)cc1 [54-15]
22 | 7.66 | 6.28 | Fc1cccc(COc2ccc(-c3ccn[nH]3)nc2)c1 [54-16]
23 | 7.68 | 6.43 | Fc1ccc(COc2ccc(-c3ccn[nH]3)nc2)cc1 [54-17]
24 | 7.64 | 6.89 | Clc1cccc(COc2ccc(-c3ccn[nH]3)nc2)c1 [54-18]
25 | 7.82 | 6.41 | N#Cc1cccc(COc2ccc(-c3ccn[nH]3)nc2)c1 [54-19]
26 | 8.19 | 5.80 | N#Cc1ccc(COc2ccc(-c3ccn[nH]3)nc2)cc1 [54-20]

Row | pIC50 (human CYP4F2) | pIC50 (human CYP4A11) | Structure (SMILES)
27 | 8.03 | 6.19 | Clc1ccc(COc2ccc(-c3ccn[nH]3)nc2)cc1 [54-21]
28 | 6.74 | 6.28 | CC(C)C(=O)N1CCC(COc2ccc(-c3ccn[nH]3)nc2)CC1 [Example 1-2]
29 | 7.14 | 6.51 | COC(=O)N1CCC(COc2ccc(-c3ccn[nH]3)nc2)CC1 [Example 1-3]
30 | 6.92 | 6.29 | CC(C)OC(=O)N1CCC(COc2ccc(-c3ccn[nH]3)nc2)CC1 [Example 1-4]
31 | 6.96 | 6.28 | O=C(C1CC1)N1CCC(COc2ccc(-c3ccn[nH]3)nc2)CC1 [Example 1-5]
32 | 6.19 | 7.15 | CC(=O)N1CCC[C@@H](COc2ccc(-c3ccn[nH]3)nc2)C1 [Example 1-6]
33 | 6.82 | 7.06 | CC(C)C(=O)N1CCC[C@@H](COc2ccc(-c3ccn[nH]3)nc2)C1 [Example 1-7]
34 | 6.72 | 6.89 | COC(=O)N1CCC[C@@H](COc2ccc(-c3ccn[nH]3)nc2)C1 [Example 1-8]
35 | 6.89 | 6.68 | CC(C)OC(=O)N1CCC[C@@H](COc2ccc(-c3ccn[nH]3)nc2)C1 [Example 1-9]
36 | 7.66 | 6.89 | CN(C)C(=O)N1CCC[C@@H](COc2ccc(-c3ccn[nH]3)nc2)C1 [Example 1-10]
37 | 6.74 | 6.66 | CC(=O)N1CCC[C@H](COc2ccc(-c3ccn[nH]3)nc2)C1 [Example 1-11]
38 | 7.68 | 6.48 | CC(C)C(=O)N1CCC[C@H](COc2ccc(-c3ccn[nH]3)nc2)C1 [Example 1-12]
39 | 7.30 | 6.51 | COC(=O)N1CCC[C@H](COc2ccc(-c3ccn[nH]3)nc2)C1 [Example 1-13]
40 | 7.41 | 6.48 | CC(C)OC(=O)N1CCC[C@H](COc2ccc(-c3ccn[nH]3)nc2)C1 [Example 1-14]
41 | 8.10 | 6.46 | CN(C)C(=O)N1CCC[C@H](COc2ccc(-c3ccn[nH]3)nc2)C1 [Example 1-15]
42 | 8.20 | 7.29 | CC(C)OC(=O)N1CC(S(=O)(=O)N2CCC[C@@H](COc3ccc(-c4ccn[nH]4)nc3)C2)C1 [Example 1-17]
43 | 8.44 | 7.09 | CC(C)OC(=O)N1CC(S(=O)(=O)N2CCC[C@H](COc3ccc(-c4ccn[nH]4)nc3)C2)C1 [Example 1-18]
44 | 8.43 | 6.72 | CC(C)CC(=O)N1CC(S(=O)(=O)N2CCC[C@H](COc3ccc(-c4ccn[nH]4)nc3)C2)C1 [Example 1-19]
45 | 8.07 | 7.11 | CC(C)CC(=O)N1CC(S(=O)(=O)N2CCC[C@@H](COc3ccc(-c4ccn[nH]4)nc3)C2)C1 [Example 1-20]
46 | 7.74 | 7.49 | CC(C)OC(=O)NCCS(=O)(=O)N1CCC[C@H](COc2ccc(-c3ccn[nH]3)nc2)C1 [Example 1-21]
47 | 7.43 | 7.36 | CCOC(=O)NCCS(=O)(=O)N1CCC[C@H](COc2ccc(-c3ccn[nH]3)nc2)C1 [Example 1-22]
48 | 7.59 | 7.59 | CC(C)OC(=O)NCCS(=O)(=O)N1CCC[C@@H](COc2ccc(-c3ccn[nH]3)nc2)C1 [Example 1-23]
49 | 7.40 | 7.46 | CCOC(=O)NCCS(=O)(=O)N1CCC[C@@H](COc2ccc(-c3ccn[nH]3)nc2)C1 [Example 1-24]
50 | 6.19 | 5.80 | CN(C)S(=O)(=O)N1CC(COc2ccc(-c3ccn[nH]3)nc2)C1 [Example 1-25]
51 | 7.03 | 5.64 | CC(C)S(=O)(=O)N1CC(COc2ccc(-c3ccn[nH]3)nc2)C1 [Example 1-26]
52 | 7.07 | 6.72 | CC(C)OC(=O)N1CCC(CCOc2ccc(-c3ccn[nH]3)nc2)CC1 [Example 1-29, Propan-2-yl 4-(2-{[6-(1H-pyrazol-5-yl)pyridin-3-yl]oxy}ethyl)piperidin-1-carboxylate]
